ChEMBL document CHEMBL3045878, “Effect of Insect Hormone Related Compounds on the Growth of Insect Cells” (1997)

Tests used:
Assay type in all cases: functional
[1] = Juvenile hormone mimic activity in Spodoptera frugiperda (fall armyworm) Sf21 cells assessed as cell number at 3.7 x 10 '-10 M after 5 days by trypan blue exclusion assay
[2] = Juvenile hormone mimic activity in Spodoptera frugiperda (fall armyworm) Sf21 cells assessed as cell number at 3.7 x 10 '-11 M after 5 days by trypan blue exclusion assay
[3] = Juvenile hormone mimic activity in Spodoptera frugiperda (fall armyworm) Sf21 cells assessed as cell number at 3.7 x 10 '-7 M after 5 days by trypan blue exclusion assay
[4] = Juvenile hormone mimic activity in Spodoptera frugiperda (fall armyworm) Sf21 cells assessed as cell number at 3.7 x 10 '-12 M after 5 days by trypan blue exclusion assay
[5] = Juvenile hormone mimic activity in Spodoptera frugiperda (fall armyworm) Sf21 cells assessed as cell number at 3.7 x 10 '-9 M after 5 days by trypan blue exclusion assay
[6] = Juvenile hormone mimic activity in Spodoptera frugiperda (fall armyworm) Sf21 cells assessed as cell number at 3.7 x 10 '-8 M after 5 days by trypan blue exclusion assay

SMILES | Activity [1] [%] | Activity [2] [%] | Activity [3] [%] | Activity [4] [%] | Activity [5] [%] | Activity [6] [%]
COC(C)(C)CCC[C@H](C)C/C=C/C(C)=C/C(=O)OC(C)C [METHOPRENE] | 6.9 | 6.7 | 6 | 6.4 | 6.5 | 6
CCc1ccc(C(=O)NN(C(=O)c2cc(C)cc(C)c2)C(C)(C)C)cc1 [TEBUFENOZIDE] | 5.6 | 5.4 | 4.3 | – | 5.7 | 5.1
CC(C)=CCC/C(C)=C/c1cncn1Cc1ccccc1 | 5.5 | 5.5 | 3.3 | – | 4.9 | 4.2
